Test results reported in patent US20040176430A1, “Propargyl-trifluoromethoxy-amino-benzothiazole derivatives” (priority 2002, published 2004).
“And” between values parts separate entries of the source, which are not always exact repeats. Equal values may be shown once.

Legend:
EAE = test: Experimental Allergic Encephalomyelitis (EAE) model of MS; assay type: in vivo, mice; conditions: 10 mg/kg twice daily, oral gavage, 30 days
Protocol: EAE is an accepted animal model of autoimmune disorder (Tisch et al. Proc. Natl. Acad. Sci. USA (1994) 91:437-438). EAE was induced by injecting the encephalitogenic agent consisting of MSCH and commercial CFA containing Mycobacterium tuberculosis H37Ra to the foot-pads of the animals and pertussis toxin intravenously.
GA-DS in MSCH emulsion was injected in the four footpads. The other compounds were administered to the respective groups by oral gavage twice daily for 30 consecutive days starting from the day of induction until the termination of the study.
Scoring of EAE clinical signs was initiated from Day 10 post-EAE induction and was continued daily for 20 days. The clinical signs were recorded on observation cards according to a grading system described in the table below.
The number of dead or moribund animals in each group were summed.
The mortality rate was calculated as: [formula]
The mean maximal score (MMS) of each group was calculated as Σ maximal score of each mouse/number of mice in the group.
The percent inhibition was calculated as [formula]
The daily scores of each mouse in the test group was summed and the individual mean daily score (IMS) was calculated as IMS=daily score of mouse/observation period (days).
The mean group score (GMS) will be calculated as Σ IMS of each mouse/number of mice in the group.
The percent inhibition will be calculated as [formula]

C57bl mice = test: Effect on MPP+ toxicity in mice (striatal dopamine and DOPAC); assay type: in vivo; conditions: for DOPAC Pmol/mg tissue +/− S.E.M. / Dopamine Pmol/mg tissue +/− S.E.M.: 5 mg/kg oral in CMC
Protocol: MPP+ is a neuro-toxin and its injection into the brain causes depletion of striatal dopamine. Male C57bl mice, weighing 24-25 g were divided into 4 groups A-D receiving the following treatments:
A: Oral administration of 0.25% Carboxymethyl cellulose (CMC, 0.1 ml/mouse) and intracerebroventricular (ICV) injection of saline (10 μl/mouse).
B. Oral administration of 5 mg/kg 3a in 0.1 ml CMC, and ICV injection of 10 μl saline.
C. Oral administration of 0.1 ml CMC, and ICV injection of 30 μg MPP+ dissolved in 10 μl saline.
D. Oral administration of 5 mg/kg 3a in 0.1 ml CMC, and ICV injection of 30 μg MPP+ dissolved in 10 μl saline.
3a/CMC or CMC alone were orally administered 30 minutes before and 2 hours after ICV injection. The injection was done according to Haley T. J and McCormick W. G (Brit.J. Pharmacol., 1957, 12, 12) using ether anesthesia. Saline or MPP+/saline were injected during 1 second using a syringe that delivered the liquid at a rate of 0.6 ml/min. Two ICV injections were carried out with a 24 hour interval between them. Mice were killed six days after the last injection and striata taken for dopamine and DOPAC determinations. Each striatum was weighed, homogenized in 0.1M Perchloric acid (0.6 ml) containing 2 mM sodium metabisulfite and 0.3 mM EDTA. After centrifugation at 13000 g for 7 minutes, the supernatant was taken for catecholamine determination. Aliquotes of 20 μl were injected into the solvent stream of an HPLC apparatus equipped with a Microsorb column (packing 3 μm, 4.6 mm diameter, 12.5 cm long). The mobile phase was composed of NaH2PO4 100 mM, octan-1-sulphonic acid 1.5 mM, disodium ethylenediaminetetracetic acid 250 μM, methanol 2.3%, acetonitrile 4% in grade deionized water, at a flow rate of 1.0 ml min^−1. Dopamine and DOPAC were detected with an ESA Coulochem model 5014 detector (Bedford, Mass., USA). Column eluates were initially oxidized by an ESA guard cell (model 5020) at +300 mV, then reduced at +60 mV at detector 1 and measured at detector 2 at −250 mV.

PC-12 cells = test: Effect on MPP+ treated PC-12 cells (LDH release); assay type: cell-based; conditions: MPP+ 1000 μM for 48 hours, tested compound 10 μM added 30 min prior to MPP+
Protocol: Pheochromocytoma PC-12 cells (at a density of 200,000 cells/well) were cultured for 10 days with 50 ng/ml NGF on 6-well culture dishes coated with 200 ug/ml rat tail type I collagen (BD Biosciences, Bedford, Mass., USA). On the day of the experiment the morphological differentiation of the cells was very advanced (typical network formation). In order to initiate the neurotoxic insult, cells were treated with 1000 μM of 1-methyl-4-phenylpyrdinium (MPP+) iodide salt from RBI chemicals (Natick, Mass., USA) for 48 hours in the absence or presence of tested compounds, added to the culture 30 min. prior to MPP+ administration. […] At the cellular level, neuronal cell death is induced by several mechanisms including pathological concentrations of intracellular calcium and free oxygen radicals. Therefore the positive control in this experiment was nimodipine at the concentration of 10 μM (RBI chemicals, Natick, Mass., USA)(a potent L-type calcium channel blocker). At the end of the experiment cell death was measured by assessing Lactate dehydrogenase (LDH) activity in the medium. High medium LDH indicated increased neuronal death that promoted leakage of this cytoplasmic enzyme into the medium.
Measuring lactate dehydrogenase activity in the medium was performed using a Sigma Diagnostics LD-L reagent. LDH activity was spectrophotometrically monitored at 340 nm by following the rate of conversion of oxidized nicotinamide adenine dinucleotide (NAD^+) to the reduced form of (NADH). Total LDH of each culture (extracellular+intracellular) was obtained by measuring LDH in the medium after freezing and thawing of the cultures. Basal LDH release was measured in untreated cultures (no MPP+). The neurotoxic effect was calculated according to the formula: (LDHs−LDHb)/LDHt×100. (s=sample; b=basal; t=total). Each compound was tested in sixplicate.

[1] = with ICV MPP+ 30 μg (Group D), striatum six days after last injection
[2] = without MPP+, ICV saline (Group B), striatum

melting point | Compound | GMS % Inhibition (EAE) | MMS % Inhibition (EAE) | Mortality % Inhibition (EAE) | Percent of total LDH release (mean ± S.E.M.) (PC-12 cells) | other results
 | C#CCN(C)c1nc2ccc(OC(F)(F)F)cc2s1 [Compound 3, Methyl-prop-2-ynyl-(6-trifluoromethoxy-benzothiazol-2-yl)-amine] | 87.5% | 73.5% | 100% |  | 
 | C#CCN(C)c1nc2ccc(OC(F)(F)F)cc2s1.Cl [Compound 3a, Methyl-prop-2-ynyl-(6-trifluoromethoxy-benzothiazol-2-yl)-amine.HCl salt] |  |  |  | 10.9% and 10.9 ± 2.3% | Effect on MPP+ caused depletion in striatal concentrations of dopamine and DOPAC (C57bl mice; Group D, 5 mg/kg oral, MPP+ ICV): reduced this depletion; DOPAC Pmol/mg tissue +/− S.E.M. (C57bl mice; [1]): 3.7 +/− 0.2 Pmol/mg tissue; Dopamine Pmol/mg tissue +/− S.E.M. (C57bl mice; [1]): 66.0 +/− 3.4 Pmol/mg tissue; DOPAC Pmol/mg tissue +/− S.E.M. (C57bl mice; [2]): 4.8 +/− 0.4 Pmol/mg tissue; Dopamine Pmol/mg tissue +/− S.E.M. (C57bl mice; [2]): 78.2 +/− 4.3 Pmol/mg tissue
138 to 140 °C | C#CCNc1nc2ccc(OC(F)(F)F)cc2s1 [Compound 4, Prop-2-ynyl-(6-trifluoromethoxy-benzothiazol-2-yl)-amine] |  |  |  |  | 
 | C#CCNc1nc2ccc(OC(F)(F)F)cc2s1.Cl [Compound 4a, Prop-2-ynyl-(6-trifluoromethoxy-benzothiazol-2-yl)-amine.HCl salt] |  |  |  | 25 ± 8.0% | 
42 to 43 °C | C#CC(C)N(C)c1nc2ccc(OC(F)(F)F)cc2s1 (stereo not drawn) [Compound 6, Methyl-(1-methyl-prop-2-ynyl)-(6-trifluoromethoxy-benzothiazol-2-yl)-amine] |  |  |  |  | 
 | C#CCN(CC(=O)c1ccc(C)cc1)c1nc2ccc(OC(F)(F)F)cc2s1 [Compound 9, 2-[Prop-2-ynyl-(6-trifluoromethoxy-benzothiazole-2-yl)-amino]-1-p-tolyl-ethanone] | 57.6% | 48.8% | 50% |  | 
 | C#CCN=c1sc2cc(OC(F)(F)F)ccc2n1C [Compound 10, (3-Methyl-6-trifluoromethoxy-3H-benzothiazol-2-ylidene)-prop-2-ynyl-amine] | 37.5% | 34.1% | 40% |  | 
98 to 100 °C | C#CCN=c1sc2cc(OC(F)(F)F)ccc2n1CC(=O)c1ccc(C)cc1 [Compound 13, 2-(2-Prop-2-ynylimino-6-trifluoromethoxy-benzothiazole-3-yl)-1-p-tolyl-ethanone] |  |  |  |  | 
 | COCCOC(=O)C1=C(C)NC(C)=C(C(=O)OC(C)C)C1c1cccc([N+](=O)[O-])c1 (stereo not drawn) [Nimodipine, reference compound] |  |  |  | 3.6 ± 0.4% | Percent of total LDH release (mean ± S.E.M.) (PC-12 cells; listed as nimodipine): 3.6%
